# Measured values from patent US20090099218A1, “SYNTHESIS OF NOVEL TUBULIN POLYMERIZATION INHIBITORS: BENZOYLPHENYLUREA (BPU) SULFUR ANALOGS” (priority 2007, published 2009).
# “And” between values parts separate entries of the source, which are not always exact repeats. Equal values may be shown once.
# Tests used:
# Panc1 = assay: MTT growth inhibition, pancreatic cell line Panc1; assay type: cell-based; settings: for IC50: Homo sapiens, PANC-1, MTT assay, 96 h treatment, average of three independent experiments
# Procedure: Eight of these analogs 6d, 6h, 6n, 6g, 7b, 7d, 8g, and 8h were tested for their cytotoxicity in seven pancreatic cell lines ASPC1, Panc1, Panc203, Panc430, Pane 1005, MiaPaca2, and HS766T using MTT assay. Cells were trypsinized, seeded at 5×10^3 cells/well in 96-well plate and allowed to grow for 24 hours before the treatment with exponential increasing concentrations of drugs in the presence of 10% FBS. After a 96-hours period of treatment, 20 μl of MTT solution (5 mg/ml in PBS) were added to each well, and the plates were then incubated for 3 hours at 37° C. Medium was then replaced with 100 μl of DMSO per well. Plates were shaken and the optical density was measured at 570 nm using a multiwell plate reader (Bio-Rad, Model 550, Bio-Rad Inc., Hercules, Calif.). Each experiment was performed in triplicate for each drug concentration and was carried out independently at least 3 times. The IC50 value was defined as the concentration needed for a 50% reduction in the absorbance calculated based on the survival curves. Response to drug treatment was assessed by standardizing treatment groups to untreated controls. Compounds activity was compared with compound 1.
# Table 2 (Growth Inhibition of Pancreatic Cancer Cell Lines by BPU and BPTU Analogues (IC50) a) compares the cytotoxicity of a series of new derivatives against a panel of seven pancreatic cancer cell lines, as determined by MTT assay. See, Mosmann, T., J. Immunol. Methods 65:55-63 (1983).
# LnCaP = assay: MTT growth inhibition, prostate cancer cell line LnCaP; assay type: cell-based, human; settings: for IC50: Homo sapiens, LNCaP, MTT assay, average of three independent experiments
# Procedure: This MTT assay was carried using human prostate cancer cell lines CWR22R, LAPC-4 and LnCap using Promega cell titer 96 nonradioactive cell proliferation kits. Cells were trypsinized and centrifuged at 1000 rpm for 5 minutes and the supernatant was aspirated. Cells were resuspended with HBSS to a concentration of 10^6/ml. Cell suspension was diluted in serum containing medium to plate 2000 cells/well/0.2 ml. Cell suspension was transferred to sterile solution basin. Cells were plated using multichannel pipette set at 200 μl and incubated overnight for attachment. One plate was prepared for day 0 MTT assay as follows: 100 μl of media was removed from each well using multichannel pipette and 15 μl of MTT reagent was added. Plates were incubated at 37° C. for 4 hrs. […] of STOP solution was added to each well and incubated at room temperature for 1 hour. Absorbance was measured at 570 and 650 nm on plate reader. All the media from the remaining plates were carefully removed and the cells were treated with the media containing drug. MTT assays were done on days 0, 3, 5 and 7. In the preliminary screening […] BPU sulfur analogs 6l, 6h, 6n, 7d and 8h were screened and their activity was compared with compound 1.
# Compounds with significant inhibitory activity in pancreatic cancer cells were further evaluated against prostate cancer cell lines in the MTT assay, (Mosmann, T., J. Immunol. Methods 65:55-63 (1983)) and the results were compared to those for compound 1 (Table 3).
# [1] = system: pancreas cancer xenografts; assay: In vivo growth inhibition of patient-derived pancreas cancer xenografts; parameters: species or system athymic nude mice; settings: for average growth after 28 days of treatment (T/C): individual patient xenograft cases; for efficacy in case 194: case with the greatest expression of MAPT; for slopes of treated versus control group, all nine cases: integrated analysis of nine treatment groups; for efficacy in case 215: low MAPT-expressing case, docetaxel 30 mg/kg i.p. once a week for 2 weeks
# Procedure: Six-week-old female athymic nude mice (Harlan) were used. The research protocol was approved by the Johns Hopkins University Animal Care and Use Committee, and animals were maintained in accordance to guidelines of the American Association of Laboratory Animal Care. Surgical non-diagnostic specimens from patients who had undergone surgery at the Johns Hopkins Hospital were implanted s.c. in one to two mice for each patient, with two small pieces per mouse (F1 generation). Tumors were grown to 1.5 cm^3 and then harvested, divided into small ˜3×3×3 mm pieces, and transplanted to another five mice, with two tumors per mouse (F2 generation). After a second growth passage, tumors were excised and propagated to cohorts of ≧20 mice. These groups constituted the F3, or treatment cohort. Tumors from this third mouse-to-mouse passage were allowed to grow to ˜200 mm3, at which time mice were randomized into three treatment groups, with five to six mice (10 evaluable tumors) in each group: control (vehicle), 6n (50 mg/kg i.p. twice per week), and 7d (50 mg/kg i.p. twice per week). Docetaxel treatment was given to selected groups at a dose of 30 mg/kg i.p. once a week for 2 weeks. Mice were monitored daily for signs of toxicity and were weighed thrice per week. Tumor size was evaluated twice per week by caliper measurements using the following formula: tumor volume=[length×width^2]/2. Relative tumor growth inhibition was calculated by relative tumor growth of treated mice divided by relative tumor growth of control mice from the onset of therapy (T/C).
# To assess the treatment effect, a hierarchical linear regression model was used with random intercepts and fixed slopes. Based on the results of exploratory plots, the assumption of fixed effects for slopes seemed reasonable. This model allowed for mouse effects to be nested within patient effects so that the hierarchical structure is fully accounted for. Specifically, the following linear regression model was fitted: log(γiJt)=a1ijtimeijt+b2jtimeijt×trtij+βtime^2ijt+eijt where j indexes patient, i indexes mouse, and t indexes time; yijt is the percentage change in tumor volume (compared with day 0) in mouse i, which is a xenograft for patient j at time t; and trtij is treatment (1=treated, 0=control) received by mouse i, which is a xenograft for patient j. […] An intercept and main effect of treatment were not included in the model that makes two assumptions: (a) at time 0, the change from baseline is 0 (which is empirically true), and (b) at baseline, the treated and untreated curves intersect. The model was fit using Win-Bugs software that estimates models using a Markov chain Monte Carlo estimation procedure. A burn-in of 10,000 iterations was done, and then the chain was run for an additional 20,000 iterations, of which every 10th iteration was saved for inference. Several chains were run with different starting values to ensure convergence. No convergence issues arose. The fitted model was used to make inferences with respect to the treatment effect and to create fitted regression lines (rescaled on the Y-axis for clearer interpretation). Point estimates of variables of interest (e.g., expected difference in tumor volume between treated and control at 28 days) and 95% credible intervals were based on the mean of posterior distributions and the 2.5th and 97.5th quantiles of the posterior distribution, respectively. The comparisons between means and proportions obtained from the biological studies were done using Student's t-test and χ^2 method, respectively. ANOVA was used when three or more variables were compared.
# Tumors from nine cases of pancreatic cancer were used to establish xenografts in nude mice, and the animals were treated with either vehicle, 6n, or 7d (FIG. 36A). The level of efficacy varied both between drugs and within cases treated with each drug. FIG. 37 provides an integrated summary of all data points obtained in the studies. […]
smiles,measurement,setting,value
Nc1ccccc1C(=O)NC(=O)Nc1ccc(Sc2ncc(Br)cn2)cc1 [Compound 7d],IC50,Panc1,90 nM
same,increase in activity compared to 7c,Panc1; Panc1,39 fold
same,IC50,LnCaP,500 nM
same,average growth after 28 days of treatment (T/C),[1]; 50 mg/kg i.p. twice per week,43% and 59%
same,efficacy in case 194,[1],inactive
same,"slopes of treated versus control group, all nine cases",[1],no statistical differences
same,efficacy in case 215,[1],particularly efficacious
"O=C(NC(=O)c1ccccc1[N+](=O)[O-])Nc1ccc(Sc2ncc(Br)cn2)cc1 [Compound 6n, 1-[4-(5-Bromopyrimidin-2-ylsulfanyl)phenyl]-3-(2-nitrobenzoyl)-urea]",IC50,Panc1,85 nM
same,increase in potency over 6m,Panc1; Panc1,8 fold
same,IC50,LnCaP,50 nM
same,increase in potency over 6m,LnCaP; LnCap,20 fold
same,"proportion of sensitive cases, above the median MAPT expression",[1]; 50 mg/kg i.p. twice per week,0 of 4
same,"proportion of sensitive cases, below the median MAPT expression",[1]; 50 mg/kg i.p. twice per week,4 of 5
same,average growth after 28 days of treatment (T/C),[1]; 50 mg/kg i.p. twice per week,≤ 50% and 60%
same,efficacy in case 194,[1],inactive
same,efficacy compared with docetaxel,[1]; direct comparison in three cases,at least as efficacious (if not better) than docetaxel
same,"slopes of treated versus control group, all nine cases",[1],no statistical differences
same,efficacy in case 215,[1],particularly efficacious
same,efficacy compared with erlotinib,[1]; same patient-derived xenografts,superior to erlotinib
